Assay results taken from patent US8247211B2, “Glycopeptide antibiotics” (American Cyanamid Company, priority 2001, dated 2012).
Converted amounts (≈) assume the structure as drawn.

Columns and labels:
Experiment in all cases: In vitro antibacterial evaluation: minimum inhibitory concentration (MIC), broth dilution method
Assay type in all cases: cell-based
Enterococcus sp. = details: 18 hours at 35° C.
Summary of the method: (§1)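 First, organisms are seeded at 5×10^5 CFU/mL into Muller-Hinton II […]. Next, antibiotic is applied across 64-0.06 μg/mL by broth dilution (NCCLS M7-A2). Finally, the lowest inhibitory concentration is recorded as MIC.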

Escherichia coli = details: 18 hours at 35° C.
Summary of the method: as §1

Staphylococcus sp. = system: Staphylococcus sp.
Summary of the method: as §1

Streptococcus sp. = details: 18 hours at 35° C.
Summary of the method: as §1

[1] = broth dilution, inoculum 5×10^5 CFU/mL

MIC Enterococcus avium (GC 4558) (Enterococcus sp.; Enterococcus avium (GC 4558)): 4 µg/mL (≈ 2.85 µM) | MIC Enterococcus faecalis (ATCC 29212) (Enterococcus sp.; Enterococcus faecalis (ATCC 29212)): 2 µg/mL (≈ 1.43 µM) | MIC Enterococcus faecalis (GC 2242) (Enterococcus sp.; Enterococcus faecalis (GC 2242)): 4 µg/mL (≈ 2.85 µM) | MIC Enterococcus faecalis (GC 2691) (Enterococcus sp.; Enterococcus faecalis (GC 2691)): 4 µg/mL (≈ 2.85 µM) | MIC Enterococcus faecalis (GC 3059) (Enterococcus sp.; Enterococcus faecalis (GC 3059)): 2 µg/mL (≈ 1.43 µM) | MIC Enterococcus faecalis (GC 4552) (Enterococcus sp.; Enterococcus faecalis (GC 4552)): 4 µg/mL (≈ 2.85 µM) | MIC Enterococcus faecalis (GC 4553) (Enterococcus sp.; Enterococcus faecalis (GC 4553)): 2 µg/mL (≈ 1.43 µM) | MIC Enterococcus faecalis (GC 4554) (Enterococcus sp.; Enterococcus faecalis (GC 4554)): 4 µg/mL (≈ 2.85 µM) | MIC Enterococcus faecalis (GC 6189) (Enterococcus sp.; Enterococcus faecalis (GC 6189)): 2 µg/mL (≈ 1.43 µM) | MIC Enterococcus faecium (GC 2243) (Enterococcus sp.; Enterococcus faecium (GC 2243)): 2 µg/mL (≈ 1.43 µM) | MIC Enterococcus faecium (GC 4556) (Enterococcus sp.; Enterococcus faecium (GC 4556)): 2 µg/mL (≈ 1.43 µM) | MIC Enterococcus faecium (GC 4557) (Enterococcus sp.; Enterococcus faecium (GC 4557)): 4 µg/mL (≈ 2.85 µM) | MIC Enterococcus avium (GC 4558) (Enterococcus sp.; [1]): 4 µg/mL (≈ 2.85 µM) | MIC Enterococcus faecalis (ATCC 29212) (Enterococcus sp.; [1]): 2 µg/mL (≈ 1.43 µM) | MIC Enterococcus faecalis (GC 2242) (Enterococcus sp.; [1]): 4 µg/mL (≈ 2.85 µM) | MIC Enterococcus faecalis (GC 2691) (Enterococcus sp.; [1]): 4 µg/mL (≈ 2.85 µM) | MIC Enterococcus faecalis (GC 3059) (Enterococcus sp.; [1]): 2 µg/mL (≈ 1.43 µM) | MIC Enterococcus faecalis (GC 4552) (Enterococcus sp.; [1]): 4 µg/mL (≈ 2.85 µM) | MIC Enterococcus faecalis (GC 4553) (Enterococcus sp.; [1]): 2 µg/mL (≈ 1.43 µM) | MIC Enterococcus faecalis (GC 4554) (Enterococcus sp.; [1]): 4 µg/mL (≈ 2.85 µM) | MIC Enterococcus faecalis (GC 6189) (Enterococcus sp.; [1]): 2 µg/mL (≈ 1.43 µM) | MIC Enterococcus faecium (GC 2243) (Enterococcus sp.; [1]): 2 µg/mL (≈ 1.43 µM) | MIC Enterococcus faecium (GC 4556) (Enterococcus sp.; [1]): 2 µg/mL (≈ 1.43 µM) | MIC Enterococcus faecium (GC 4557) (Enterococcus sp.; [1]): 4 µg/mL (≈ 2.85 µM) | MIC Escherichia coli (ATCC 25922) (Escherichia coli; Escherichia coli (ATCC 25922)): 64 µg/mL (≈ 45.6 µM) | MIC Escherichia coli (GC 4560) (Escherichia coli; Escherichia coli (GC 4560)): 1 µg/mL (≈ 0.713 µM) | MIC Staphylococcus aureus (ATCC 29213) (Staphylococcus sp.; strain ATCC 29213): 2 µg/mL (≈ 1.43 µM) | MIC Staphylococcus aureus (GC 1131) (Staphylococcus sp.; strain GC 1131): 2 µg/mL (≈ 1.43 µM) | MIC Staphylococcus aureus (GC 3051) (Staphylococcus sp.; strain GC 3051): 2 µg/mL (≈ 1.43 µM) | MIC Staphylococcus aureus (GC 3053) (Staphylococcus sp.; strain GC 3053): 2 µg/mL (≈ 1.43 µM) | MIC Staphylococcus aureus (GC 4541) (Staphylococcus sp.; strain GC 4541): 2 µg/mL (≈ 1.43 µM) | MIC Staphylococcus aureus (GC 4542) (Staphylococcus sp.; strain GC 4542): 2 µg/mL (≈ 1.43 µM) | MIC Staphylococcus aureus-SMITH (GC 4543) (Staphylococcus sp.; strain GC 4543): 2 µg/mL (≈ 1.43 µM) | MIC Staphylococcus aureus (GC 4544) (Staphylococcus sp.; strain GC 4544): 2 µg/mL (≈ 1.43 µM) | MIC Staphylococcus aureus (GC 4545) (Staphylococcus sp.; strain GC 4545): 2 µg/mL (≈ 1.43 µM) | MIC Coagulase Negative Staphylococcus (GC 4547) (Staphylococcus sp.; strain GC 4547): 2 µg/mL (≈ 1.43 µM) | MIC Coagulase Negative Staphylococcus (GC 4548) (Staphylococcus sp.; strain GC 4548): 1 µg/mL (≈ 0.713 µM) | MIC Coagulase Negative Staphylococcus (GC 4549) (Staphylococcus sp.; strain GC 4549): 1 µg/mL (≈ 0.713 µM) | MIC Coagulase Negative Staphylococcus (GC 4551) (Staphylococcus sp.; strain GC 4551): 2 µg/mL (≈ 1.43 µM) | MIC Streptococcus agalactiae (GC 4564) (Streptococcus sp.; Streptococcus agalactiae (GC 4564)): <0.12 µg/mL | MIC Streptococcus pneumoniae (ATCC 6301) (Streptococcus sp.; Streptococcus pneumoniae (ATCC 6301)): <0.12 µg/mL | MIC Streptococcus pneumoniae (GC 1894) (Streptococcus sp.; Streptococcus pneumoniae (GC 1894)): <0.12 µg/mL | MIC Streptococcus pneumoniae (GC 4565) (Streptococcus sp.; Streptococcus pneumoniae (GC 4565)): <0.12 µg/mL | MIC Streptococcus pyogenes (GC 4563) (Streptococcus sp.; Streptococcus pyogenes (GC 4563)): <0.12 µg/mL | MIC Streptococcus agalactiae (GC 4564) (Streptococcus sp.; [1]): <0.12 µg/mL | MIC Streptococcus pneumoniae (ATCC 6301) (Streptococcus sp.; [1]): <0.12 µg/mL | MIC Streptococcus pneumoniae (GC 1894) (Streptococcus sp.; [1]): <0.12 µg/mL | MIC Streptococcus pneumoniae (GC 4565) (Streptococcus sp.; [1]): <0.12 µg/mL | MIC Streptococcus pyogenes (GC 4563) (Streptococcus sp.; [1]): <0.12 µg/mL
Structure (SMILES): CC(c1ccccc1)C1NC(=O)CNC(=O)C(CO)NC(=O)C(C(O)C2CNC(=N)N2C2OC(CO)C(O)C(O)C2O)NC(=O)C(C(O)C2CNC(=N)N2)NC(=O)C(Cc2ccc(OC3OC(CO)C(OC4OC5COC6(CCCCC6(C)C)OC5C(O)C4O)C(O)C3O)cc2)NC1=O (stereo not drawn) [Example 205, Cyclo[glycyl-β-methylphenylalanyl-O-[4-O-[4,6-O-(2,2-dimethylcyclohexylidene)hexopyranosyl]hexopyranosyl]tyrosyl-3-(2-iminoimidazolidin-4-yl)seryl-3-(3-hexopyranosyl-2-iminoimidazolidin-4-yl)serylseryl]]
MIC Staphylococcus haemolyticus (GC 4546) (Staphylococcus sp.; strain GC 4546): 2 µg/mL (≈ 1.43 µM)
